Experiments:
amyloid-β = assay: Amyloid-β deposition in brain tissue (cerebral cortex), thioflavin S staining and immunofluorescence; assay type: in vivo, mouse; conditions: APP/PS1 mice, vs 9-month-old untreated APP/PS1 mice
Source text: (§1) Transgenic mice overexpressing hAPP695swe (APPswe) and presenilin-1M146V (PS1) mutations were used as mouse models of the Alzheimer's disease. These are mouse lines produced by GlaxoSmithKline (Harlow, UK) with the standard technology for C57BL background (Charles River, UK), which double heterozygote mutant mice (APP/PS1 tg mice) were produced by backcrossing APPswe mice with pure C57BL/6 backgrounds and crossing PS1 mice
(§2) After collecting blood from mice, the obtained blood was separated into erythrocytes and plasma by centrifugation. The separated erythrocytes are reacted with 10 uM sphingosine at 37° C. for 1 hour, and then reacted for 1 hour at 37° C. after mixing again with the separated plasma. […]
(§3) After fixing the cerebral (especially cortex) and hippocampus of mice with 4% paraformaldehyde, the immobilized tissues were incubated with 0.5% thioflavin S (Sigma-Aldrich) or anti-20G10 against Aβ42 (mouse, 1:1000), anti-G30 against Aβ40 (rabbit, 1:1000), anti-lba-1 (rabbit, 1:500, Wako), and anti-GFAP (rabbit, 1:500, DAKO), respectively. […] The sites were analyzed using a laser scanning confocal microscope or Olympus BX51 microscope equipped with Fluoview SV1000 imaging software (Olympus FV1000, Japan). Metamorph software (Molecular Devices) was used to quantify the percentage of area of stained area to area of total tissue. […]

[1] = S1P, ApoM, HDL-S1P and HDL-ApoM levels in plasma of APP/PS1 mice after HDL-ApoM-S1P loading; assay type: in vivo, mouse; conditions: i.v. 25 μl twice a week for 4 weeks (8 times), vs untreated APP/PS1 mice
Source text: as §1
(§4) After collecting blood from mice, the obtained blood was separated into erythrocytes and plasma by centrifugation. The separated erythrocytes are reacted with 10 uM sphingosine at 37° C. for 1 hour, and then reacted for 1 hour at 37° C. after mixing again with the separated plasma. After completion of the reaction, erythrocytes and plasma were separated by centrifugation, and only the plasma was collected again. The plasma thus obtained was loaded with S1P in HDL (HDL-ApoM-S1P loading), which was illustrated in FIG. 1.
The plasma solution thus obtained was intravenously injected 25 μl into mice twice a week for 4 weeks (total 8 times) according to the experimental outline shown in FIG. 2. As a control group, 3 μM S1P (Avanti) and […] ApoM (Mybiosource, SEQ ID NO: 1) were injected intravenously with 25 μl in mice twice a week for 4 weeks (eight times in total).
To collect blood from mouse models (APP/PS1 tg mice or APP/PS1/ApoM tg mice) and normal control mice (WT), the mice were anesthetized first, and 500 μl to 700 μl of blood were collected in heparin tubes (BD Falcon) by cardiac drawing. Each blood sample was then centrifuged at 1,200 rpm for 5 minutes to separate plasma from the supernatant. This plasma sample was stored at −80° C. before being used for analysis.
60 μl of plasma sample was placed in the ultrafast centrifuge tube, and then the same amount of PBS (Gibco) solution was added to form a layer on the plasma. A high speed centrifuge (HITACHI cp100wx Centrifuge P70AT rotor) was used to centrifuge at 70,000 rpm for 3 hours at 4° C. 60 μl of the lower layer of the sample separated into two layers was transferred into a new ultra-centrifuge tube. […]
Extraction and quantification of S1P was performed in the following manner. […] The dried lipid extract was resuspended in 25 μl of 0.2% Igepal CA-630 (Sigma-Aldrich), and the concentration level of each lipid was quantified by the UPLC system using the column ACQUITY BEH Shield RP18 1.7 μm 2.1×50 mm (186002853) and 0.1% of NH4OH.
Using a commercial ELISA kit (CUSABIO Human ApoM ELISA Kit and Mouse ApoM ELISA Kit), the amount of apolipoprotein M (ApoM) contained in the mouse plasma or HDL fractionated therefrom was quantified according to the manufacturer's protocol. […]

APP/PS1 mice = assay: Morris water maze (MWM) test; assay type: in vivo, mouse; conditions: 10 days training, probe trial day 11
Source text: as §1, §4
The plasma solution thus obtained was intravenously injected 25 μl into mice twice a week for 4 weeks (total 8 times) according to the experimental outline shown in FIG. 2. […]
In order to identify potential effects on learning and memory, Morris water maze (MWM) and fear conditioning experiments were performed according to known methods. […] All experiments were recorded using a charge-coupled device (CCD) camera with video monitor and computer. […]

tau = assay: Tau deposition in brain tissue (AT8 immunofluorescence); assay type: in vivo, mouse; conditions: APP/PS1 mice, cerebral cortex, vs 9-month-old untreated APP/PS1 mice
Source text: as §1, §2, §3

astrocytes = assay: Activity of astrocytes (GFAP staining), neuroinflammatory response; assay type: in vivo, mouse; conditions: APP/PS1 mice, brain tissue, vs untreated APP/PS1 mice
Source text: as §1, §2, §3

microglia = assay: Activity of microglia (Iba1 staining), neuroinflammatory response; assay type: in vivo, mouse; conditions: APP/PS1 mice, brain tissue, vs untreated APP/PS1 mice
Source text: as §1, §2, §3

AD patients = conditions: cited from earlier work; for delaying cognitive decline compared to placebo: large-scale clinical trial, one year

With `CCCCCCCCCCCCC/C=C/[C@@H](O)[C@@H](N)COP(=O)(O)O` [S1P, Sphingosine-1-Phosphate] the “Aβ40 deposition in brain tissue” value (amyloid-β) was “did not show a significant difference”, the “Aβ42 deposition in brain tissue” value (amyloid-β) was “did not show a significant difference” and the “level of ApoM in plasma” value [1] was “did not show a difference”. The “level of HDL-ApoM in the HDL fraction” value [1] was “did not show a difference”, the “level of HDL-S1P in the HDL fraction” value [1] was “did not show a difference” and the “level of S1P in plasma” value [1] was “did not show a difference”. The “learning and memory (spatial memory formation), MWM” value (APP/PS1 mice) was “severe impairment”, the “tau deposition (AT8) in brain tissue” value (tau) was “did not show a significant difference” and the “inflammatory activity of astrocytes” value (astrocytes) was “no significant difference”. For the same compound, the “inflammatory activity of microglia” value (microglia) was “no significant difference”.

In the case of `O=C(O)Cc1ccccc1Nc1c(Cl)cccc1Cl` [diclofenac], the “index of cognitive decline vs placebo” value (AD patients; mild to moderate AD patients, diclofenac in combination with misoprostol, after 25 weeks) is listed as “no significant difference”.

For `CCN(CCO)CCCC(C)Nc1ccnc2cc(Cl)ccc12` (centres unmarked) [hydroxychloroquine], the preventing memory degradation (AD patients; 18-month experiment) is listed as “no protective effect”.

In the case of `COc1ccc2cc([C@H](C)C(=O)O)ccc2c1` [naproxen], the “delaying cognitive decline compared to placebo” value (AD patients) is listed as “not effective”.

For `CS(=O)(=O)Nc1ccc([N+](=O)[O-])cc1Oc1ccccc1` [nimesulide], the “rate of cognitive change” value (AD patients; AD patients, small 24-week studies) is listed as “no significant difference”.

For `C[C@]12C=CC(=O)C=C1CC[C@@H]1[C@@H]2C(=O)C[C@@]2(C)[C@H]1CC[C@]2(O)C(=O)CO` [prednisone], the “cognitive decline, treatment vs placebo groups” value (AD patients; low doses for one year) is listed as “no difference”.

In the case of `CS(=O)(=O)c1ccc(C2=C(c3ccccc3)C(=O)OC2)cc1` [rofecoxib], the “delaying cognitive decline compared to placebo” value (AD patients) is given as “not effective” and the “efficacy in mild to moderate AD patients” value (AD patients; trial for 1 year) is given as “ineffective”.

Source: patent US11766444B2, “Pharmaceutical composition for preventing or treating degenerative brain disorders including HDL-APOM-S1P as active ingredient” (Kyungpook National University Industry-Academic Cooperation …, priority 2017, dated 2023)
